# According to US20030207863A1, “Preventives and remedies for central nervous system diseases” (priority 2000, published 2003):
# System: IMR32 cells
# Assay: Amyloid β protein in culture supernatant of IMR32 cells after addition of urotensin II, by enzyme immunoassay
# Type: cell-based
# Conditions: cultured 24 hours
# Procedure: Test compound 1 was added to IMR32 cells at various concentrations (μM) 10 minutes before addition of 10 nM of urotensin II. Then, urotensin II was added in the presence or absence of test compound 1, the mixture was cultured for 24 hours, and the amount of amyloid β protein in the supernatant of the culture was determined by enzyme immunoassay (Biochemistry, Vol.34, No.32, pp. 10272-10278, (1995)). Test compound 2 as described hereinafter (the compound of Synthesis Example 5) was used and added at a concentration of 1 nM, and the amount of amyloid β protein was determined in the same manner as that of Experimental Example 1. Namely, IMR32 cells were used and test compound 2 was added at a concentration of 1 nM 10 minutes before addition of 10 nM of urotensin II. After addition of urotensin II, the mixture was cultured for 24 hours and the amount of amyloid β protein in the supernatant of the culture was determined by enzyme immunoassay.
SMILES,"suppression of increase in the selective secretion of amyloid β40 by urotensin II (test compound at various concentrations (μM) added 10 minutes before 10 nM urotensin II, FIG. 1)","suppression of increase of amyloid β40 by urotensin II (test compound at 1 nM added 10 minutes before 10 nM urotensin II, FIG. 2)"
Cc1ccc2nc3c(c(N)c2c1)CCN3Cc1ccccc1 [test compound 1],concentration-dependently suppressed,
"Cl.NS(=O)(=O)c1ccc(CCN(Cc2cccc(-c3cccc(C(=O)NCCN4CCCC4)c3)c2)C(=O)CCCc2ccccc2)cc1 [test compound 2, 3′-{({2-[4-(Aminosulfonyl)phenyl]ethyl}[4-phenylbutanoyl]amino)methyl}-N-[2-(1-pyrrolidinyl)ethyl][1,1′-biphenyl]-3-carboxamide Hydrochloride]",,completely suppressed
